Experiment [1] deals with recombinant HCV NS5B (HCV RNA-dependent RNA polymerase) (Hepatitis C virus genotype 1b, UniProt P26663). Nature of the experiment: biochemical.
Experiment [2] addresses T1, HCV NS3 enzyme (ATPase activity of HCV NS3 helicase) (Hepatitis C virus genotype 1b, UniProt P26663). Kind of experiment: ATPase activity of HCV NS3 helicase, Malachite Green Assay. To be noted: free inorganic phosphate release, 30 min at 37 C, 200 μM ATP, 3 nM enzyme, read-out: Anti-ATPase (Malachite Green assay) EC50. It counts as biochemical. On the procedure:
(§1) Evaluation of Analogues for measurement of ATPase activity of HCV NS3 helicase
The measurement of ATPase activity was performed by measuring the amount of free inorganic phosphate released during the conversion of ATP to ADP by the HCV NS3 ATPase activity. The assay is as follows: In a 96-well microtiter-plate, compounds were dissolved at various concentrations in a final volume of 25 μl of ATPase buffer containing 400 μM ATP. The enzymatic reaction was initiated by the addition of 25 μl of ATPase buffer containing 6 nM of HCV NS3 enzyme without ATP to the wells followed by an incubation of 30 min. at 37 C. Essentially, the final concentration of the ATPase buffer components are as follows: 44 mM MOPS pH 7.0, 8.8 mM NaCl, 2.2 mM MgCl2, 125 μg/ml poly A, 1% DMSO, 200 μM ATP, and 3 nM HCV NS3 enzyme. The reaction was stopped by the addition of 100 μl of Biomol Green™ reagent (BIOMOL® Research Laboratories Inc., Plymouth Meeting, Pa.). In order to allow the development of the green color, the plate was incubated for 15 min. at room temperature. Then the plate was read on a micro-plate reader at 620 nm. […] The signal recorded was also corrected from the background signal obtained with control samples with compound only. The IC50 was determined from dose-response curves using six to eight concentrations per compound. […]

Experiment [3] has as its target T1, HCV NS3 enzyme (ATPase activity of HCV NS3 helicase). Nature of the experiment: ATPase activity of HCV NS3 helicase, HPLC Assay. It counts as biochemical. Conditions: ADP produced measured by paired-ion HPLC, 1 nM enzyme, read-out: Anti-ATPase (HPLC method) EC50. On the procedure: as §1
The measurement of HCV NS3 ATPase activity was performed by measuring the amount of ADP produced during the conversion of ATP to ADP by the HCV NS3 enzyme using paired-ion HPLC on a reverse phase column. […]. The mobile phase was an isocratic solution of 0.15 M triethylamine, 6% methanol, and phosphoric acid to pH 5.5. ADP and ATP peaks were resolved using the Aqua 5μ, C18, 125 Å, (150×4.6 mm) reverse phase column. The extent of ATP conversion to ADP was evaluated by measuring the area under the ADP peak produced which was detected at 259 nm. The amount of ADP was corrected for the presence of ADP contaminant in the original ATP solution. […] The IC50 was determined from dose-response curves using six to eight concentrations per compound. Curves were fitted to data points using a non-linear regression analysis, and IC50s were interpolated from the resulting curves using GraphPad Prism software, version 2.0 (GraphPad Software Inc, San Diego, Calif.).

Setting [4] is: related polymerase activity (Example 27 list), read-out: IC50.
The mark [5] stands for this setting: HCV polymerase activity, list of compounds of Example 27, read-out: IC50 (polymerase activity).

Like-named read-outs stand apart in the source and are kept apart here. Some results are limits rather than exact numbers.

recombinant HCV NS5B (HCV RNA-dependent RNA polymerase), sequence (P26663 2420-3010 limits assumed): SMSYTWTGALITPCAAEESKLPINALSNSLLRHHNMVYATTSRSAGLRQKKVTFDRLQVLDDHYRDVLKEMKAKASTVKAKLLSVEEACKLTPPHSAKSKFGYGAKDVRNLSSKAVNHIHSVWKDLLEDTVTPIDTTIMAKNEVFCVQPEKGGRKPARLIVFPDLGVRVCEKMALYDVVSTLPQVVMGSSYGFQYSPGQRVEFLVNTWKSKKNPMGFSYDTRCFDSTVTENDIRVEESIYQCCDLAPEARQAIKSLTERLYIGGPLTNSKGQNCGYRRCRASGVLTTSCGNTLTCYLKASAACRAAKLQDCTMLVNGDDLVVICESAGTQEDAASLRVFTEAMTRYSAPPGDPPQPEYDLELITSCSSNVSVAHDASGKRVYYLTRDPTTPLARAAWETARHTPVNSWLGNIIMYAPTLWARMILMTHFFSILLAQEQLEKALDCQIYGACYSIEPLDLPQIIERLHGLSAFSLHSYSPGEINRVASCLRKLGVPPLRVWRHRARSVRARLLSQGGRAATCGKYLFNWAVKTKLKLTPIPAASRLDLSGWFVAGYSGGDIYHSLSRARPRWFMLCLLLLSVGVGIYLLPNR
T1 sequence (P26663 1027-1657 limits assumed): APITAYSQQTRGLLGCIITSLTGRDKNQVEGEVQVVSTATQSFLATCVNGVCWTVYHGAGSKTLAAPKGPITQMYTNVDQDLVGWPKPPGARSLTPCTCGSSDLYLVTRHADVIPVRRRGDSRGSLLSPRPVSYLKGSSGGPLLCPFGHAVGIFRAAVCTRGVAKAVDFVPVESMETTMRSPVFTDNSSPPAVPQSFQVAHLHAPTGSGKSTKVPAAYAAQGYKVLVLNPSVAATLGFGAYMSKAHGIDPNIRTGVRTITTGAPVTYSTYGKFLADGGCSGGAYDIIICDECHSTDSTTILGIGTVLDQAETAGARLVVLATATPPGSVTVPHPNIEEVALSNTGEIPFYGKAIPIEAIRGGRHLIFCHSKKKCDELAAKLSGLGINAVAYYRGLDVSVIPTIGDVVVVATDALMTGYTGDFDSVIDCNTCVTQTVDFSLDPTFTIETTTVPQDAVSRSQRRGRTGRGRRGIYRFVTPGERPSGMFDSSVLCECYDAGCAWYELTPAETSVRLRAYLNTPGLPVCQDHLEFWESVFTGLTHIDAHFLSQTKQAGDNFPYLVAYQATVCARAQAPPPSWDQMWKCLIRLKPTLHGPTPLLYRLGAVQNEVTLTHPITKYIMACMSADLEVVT

What is called IC50 is the concentration needed to halve the response being measured. By EC50 is commonly meant the concentration giving half of the maximal effect. For `Cc1cc(S(=O)(=O)Nc2cc(-c3ccc(CC(C)C)cc3)sc2C(=O)O)c(C)cc1Cl` [Compound #19, 3-(4-Chloro-2,5-dimethyl-benzenesulfonylamino)-5-(4-isobutyl-phenyl)-thiophene-2-carboxylic acid], the IC50 in experiment [1] (setting [4]) lay in the range of 5 to 20 µM. Further, the values for the EC50 in experiment [2] and in experiment [3] were less than 5 µM and 5 to 20 µM, respectively.

Turning to `CC(C)Cc1ccc(-c2cc(NS(=O)(=O)c3ccc(-c4cc(C(F)(F)F)on4)s3)c(C(=O)O)s2)cc1` [Compound #581, 5-(4-Isobutyl-phenyl)-3-[5-(5-trifluoromethyl-isoxazol-3-yl)-thiophene-2-sulfonylamino]-thiophene-2-carboxylic acid], the concentration for a half-maximal effect (EC50) in experiment [3] lay within 5 to 20 µM.

Consider `Cc1cc(S(=O)(=O)Nc2cc(-c3ccc(Cl)cc3)sc2C(=O)O)c(C)cc1Cl` [Compound #14, 3-(4-Chloro-2,5-dimethyl-benzenesulfonylamino)-5-(4-chloro-phenyl)-thiophene-2-carboxylic acid], for which, in experiment [1] (setting [4]), the IC50 is less than 5 µM. Besides, in experiment [2], the EC50 is more than 20 µM.

Take `CC(C)Cc1ccc(-c2cc(NS(=O)(=O)c3ccc(C#N)cc3Cl)c(C(=O)O)s2)cc1` [Compound #228, 3-(2-Chloro-4-cyanobenzenesulfonyl-amino)-5-(4-isobutylphenyl)-thiophene-2-carboxylic acid]: the IC50 in experiment [1] (setting [4]) is more than 20 µM. For the same compound, in experiment [3], the 50% effective concentration (EC50) is more than 20 µM.

For the compound `CC(C)Cc1ccc(-c2cc(NS(=O)(=O)c3ccc(Br)cc3F)c(C(=O)O)s2)cc1` [Compound #223, 3-(4-Bromo-2-fluorobenzenesulfonyl-amino)-5-(4-isobutylphenyl)-thiophene-2-carboxylic acid], in experiment [1] (setting [4]), the IC50 fell in the range of 5 to 20 µM. Also, the EC50 in experiment [3] is less than 5 µM.

`CC(C)Cc1ccc(-c2cc(NS(=O)(=O)c3ccc(F)c(F)c3F)c(C(=O)O)s2)cc1` [Compound #582, 5-(4-Isobutyl-phenyl)-3-(2,3,4-trifluoro-benzenesulfonylamino)-thiophene-2-carboxylic acid]: in experiment [3], the concentration giving a half-maximal response (EC50) was more than 20 µM.

On to `Cc1cc(Br)ccc1S(=O)(=O)Nc1cc(-c2ccc(CC(C)C)cc2)sc1C(=O)O` [Compound #224, 3-(4-Bromo-2-methylbenzenesulfonyl-amino)-5-(4-isobutylphenyl)-thiophene-2-carboxylic acid], for which the concentration for half-maximal inhibition (IC50) in experiment [1] (setting [4]) was more than 20 µM. Further, in experiment [3], the EC50 was 5 to 20 µM.

With `COc1cccc(S(=O)(=O)Nc2cc(-c3ccc(CC(C)C)cc3)sc2C(=O)O)c1` [Compound #225], the IC50 in experiment [1] (setting [4]) is more than 20 µM. The EC50 in experiment [3] was more than 20 µM.

Take `CC(C)Cc1ccc(-c2cc(NS(=O)(=O)c3cc(OCC(F)(F)F)ccc3OCC(F)(F)F)c(C(=O)O)s2)cc1` [Compound #227, 3-[2,5-Bis-(2,2,2-trifluoroethoxy)-benzenesulfonylamino]-5-(4-isobutyl-phenyl)-thiophene-2-carboxylic acid]: the half-maximal inhibitory concentration (IC50) in experiment [1] (setting [4]) is more than 20 µM. In addition, the EC50 in experiment [3] was more than 20 µM.

With `CC(COCc1ccccc1)N(C(=O)c1ccc(Cl)cc1Cl)c1cc(-c2ccccc2)sc1C(=O)O` (stereo not drawn) [Compound 516, 3-[(2-BENZYLOXY-1-METHYL-ETHYL)- (2,4-DICHLORO-BENZOYL)-AMINO]-5- PHENYL-THIOPHENE-2-CARBOXYLIC ACID], in experiment [1] (setting [5]), the IC50 is less than 5 µM.

Turning to `Cc1ccc(C(=O)N(C)c2cc(-c3ccccc3)sc2C(=O)O)c(F)c1F` [Compound 280, 3-[(2,3-DIFLUORO-4-METHYL-BENZOYL)-METHYL-AMINO]-5-PHENYL-THIOPHENE-2-CARBOXYLIC ACID], in experiment [1] (setting [4]), the IC50 is less than 5 µM.

Consider `CC1CCC(C(=O)N(c2cc(-c3ccccc3)sc2C(=O)O)C(C)C)CC1` (stereo not drawn) [Compound 317, 3-[ISOPROPYL-(4-METHYL- CYCLOHEXANECARBONYL)-AMINO]-5- PHENYL-THIOPHENE-2-CARBOXYLIC ACID], for which, in experiment [1] (IC50), the concentration for half-maximal inhibition (IC50) was less than 5 µM.

For the compound `CC(C)N(C(=O)C1CCCCCC1)c1cc(-c2ccccc2)sc1C(=O)O` [Compound 380, 3-(CYCLOHEPTANECARBONYL- ISOPROPYL-AMINO)-5-PHENYL- THIOPHENE-2-CARBOXYLIC ACID], in experiment [1] (setting [4]), the IC50 is less than 5 µM.

Regarding `CC([C@H](O[Si](C)(C)C(C)(C)C)c1ccccc1)N(C(=O)c1ccc(Cl)cc1Cl)c1cc(-c2ccccc2)sc1C(=O)O` (stereo in doubt) [Compound 556, 3-[[2-(TERT-BUTYL-DIMETHYL- SILANYLOXY)-1-METHYL-2-PHENYL- ETHYL]-(2,4-DICHLORO-BENZOYL)- AMINO]-5-PHENYL-THIOPHENE-2- CARBOXYLIC ACID], the IC50 in experiment [1] (setting [5]) lay in the range of 5 to 20 µM.

With `COCC(C)N(C(=O)c1ccc(Cl)cc1Cl)c1cc(-c2ccccc2)sc1C(=O)O` (stereo not drawn) [Compound 561, 3-[(2,4-DICHLORO-BENZOYL)-(2- METHOXY-1-METHYL-ETHYL)-AMINO]-5- PHENYL-THIOPHENE-2-CARBOXYLIC ACID], the IC50 in experiment [1] (setting [5]) is less than 5 µM.

As for `CC(C)N(C(=O)c1ccc(Cl)nc1)c1cc(-c2ccccc2)sc1C(=O)O` [Compound 246, 3-[(6-CHLORO-PYRIDINE-3-CARBONYL)-ISOPROPYL-AMINO]-5-PHENYL-THIOPHENE-2-CARBOXYLIC ACID], the IC50 in experiment [1] (setting [4]) is more than 20 µM.

In the case of `O=C(O)c1sc(-c2ccccc2)cc1N(Cc1ccccc1)C(=O)c1ccc(Cl)cc1Cl` [Compound 233, 3-[BENZYL-(2,4-DICHLORO-BENZOYL)-AMINO]-5-PHENYL-THIOPHENE-2-CARBOXYLIC ACID], the IC50 in experiment [1] (setting [4]) was less than 5 µM.

As for `Cc1ccc(C(=O)N(Cc2ccccc2)c2cc(-c3ccccc3)sc2C(=O)O)cc1` [Compound 340, 3-[BENZYL-(4-METHYL-BENZOYL)- AMINO]-5-PHENYL-THIOPHENE-2- CARBOXYLIC ACID], the half-inhibitory concentration (IC50) in experiment [1] (setting [4]) is less than 5 µM.

Consider `Cc1cccc(CN(C(=O)C(C)C)c2cc(-c3ccccc3)sc2C(=O)O)c1` [Compound 465, 3-[ISOBUTYRYL-(3-METHYL-BENZYL)- AMINO]-5-PHENYL-THIOPHENE-2- CARBOXYLIC ACID], for which, in experiment [1] (setting [5]), the concentration for half-maximal inhibition (IC50) is 5 to 20 µM.

(Values after US6881741B2 (ViroChem Pharma Inc., priority 2001, dated 2005).)
